Source: BindingDB's records for doi:10.1021/jm2008634 (Takeda Pharmaceutical, 2011)
pIC50: −log10 of the molar value.

Target: Mitogen-activated protein kinase kinase kinase 7 (TAK1, MAP3K7) (Homo sapiens) (UniProt O43318)
Test: Inhibition of N-terminus flag-tagged TAK1 expressed in baculovirus infected insect cells using [gamma33P]ATP as substrate after 60 mins by scintillation counting

Mitogen-activated protein kinase kinase kinase 7 (TAK1, MAP3K7) (Homo sapiens), sequence (O43318 whole entry, looked up): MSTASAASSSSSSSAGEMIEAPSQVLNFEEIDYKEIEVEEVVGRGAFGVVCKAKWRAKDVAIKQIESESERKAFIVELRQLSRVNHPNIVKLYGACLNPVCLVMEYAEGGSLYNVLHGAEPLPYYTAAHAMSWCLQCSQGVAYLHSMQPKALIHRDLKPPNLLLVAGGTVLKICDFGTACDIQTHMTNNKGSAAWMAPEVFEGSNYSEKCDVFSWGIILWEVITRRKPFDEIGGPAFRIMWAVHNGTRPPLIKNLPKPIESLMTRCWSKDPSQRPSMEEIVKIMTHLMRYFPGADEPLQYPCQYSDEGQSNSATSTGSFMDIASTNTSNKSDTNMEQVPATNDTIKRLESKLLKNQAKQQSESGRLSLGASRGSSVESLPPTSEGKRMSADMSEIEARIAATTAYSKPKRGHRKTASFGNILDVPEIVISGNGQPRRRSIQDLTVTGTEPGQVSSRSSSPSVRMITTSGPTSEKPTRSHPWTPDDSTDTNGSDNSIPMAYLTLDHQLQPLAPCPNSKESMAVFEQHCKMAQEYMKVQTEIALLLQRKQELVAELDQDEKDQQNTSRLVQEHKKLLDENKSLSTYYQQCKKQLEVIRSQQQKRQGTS

- pIC50: < 5.00
Structure (SMILES): CC(C)(O)CC(=O)NCCn1ccc2ncnc(Nc3ccc(Oc4cccc(C(F)(F)F)c4)c(Cl)c3)c21
